According to patent US20180318383A1, “PEPTIDE HAVING NEURONAL LOSS PREVENTION AND REGENERATION EFFECTS, AND COMPOSITION CONTAINING SAME” (GEMVAX & KAEL CO., LTD., priority 2015, published 2018):

Assays:
[1] = system: AD transgenic mice (3XTg-AD); assay: Passive avoidance test; format: in vivo
Description: To test the efficacy of PEP1 on AD, AD transgenic mice (3XTg-AD) were purchased from Jackson Laboratory. Genetic characteristics of the transgenic mice are as follows: B6; 129-Psen1tm1Mpm Tg(APPSwe, tauP301L)1Lfa/Mmjax. […] One week after mice were confirmed as pregnant, new mice were delivered and weaned for 3 weeks. Two weeks later, mature mice were obtained.
During the preliminary breeding and the entire period of the experiment, a temperature was maintained at 23±2° C. and a relative humidity was maintained at 60±10%, and then the mice were raised under a 12-hour dark/light cycle. Experimental animals were divided into five groups, and each group included 10 animals. The divided experimental groups are as follows. […]
The PEP1, physiological saline, donepezil and […], and then two months after the injection, cognitive/memory behavior tests (passive avoidance test and Y maze test) were performed to examine a degree of improvement in cognitive function and memory function. After the brain was extracted to separate the hippocampus, the amounts of amyloid beta in the hippocampus and the whole brain, and the amounts of an amyloid beta oligomer and NFT generated by tau hyperphosphorylation were determined by western blotting and immunostaining. […]

[2] = system: primary cultured cortical nerve; assay: Intracellular signaling proteins in damaged neurons; format: cell-based, rat; details: Aβ25-35 + PEP1
Description: A primary cultured cortical nerve was obtained from the cerebral cortex of the fetal rat on day 16 of the embryonic period. Briefly, the brain was rapidly removed from the rat, and placed in a petri dish containing cold phosphate-buffered physiological saline (HBSS). Single cells were isolated from the cerebral cortex, and added into a previously poly-L-lysine-coated Corning dish with a diameter of 100 mm, or a glass coverslip was placed in a 6- or 24-well plate. The cultured cells were cultured in DMEM (high glucose).
Two days after the cells were added, non-neuronal cells were removed through treatment of 5 μM cytosine arabinoside for 24 hours. Only the mature culture (7 days in the test tube) was used in this experiment. Approximately 79.7% of a group of neurons was obtained from the neurons of a primary cortex. […]

Sequence: EARPALLTSRLRFIPK (homo sapiens) [PEP1, hTERT-derived peptide consisting of 16 amino acids, telomerase location [611-626]]
- avoidance ability (passive avoidance test) ([1]; 3XTg-AD mice, treated from age 12 months, tested two months after injection, vs control and Donepezil): excellent avoidance ability
- time and frequency of staying in the bright room (passive avoidance test) ([1]; severe AD models, 20-month-old or older 3XTg-AD mice, PEP1 1 mg/kg s.c., vs physiological saline): increased
- apoptosis-associated proteins [2]: a low amount
- proliferation-associated proteins [2]: a large amount
